What was measured:
Type in all cases: cell-based
[1] = test system: CEM-DNR-bulk (T-lymfoblastic leukemia, doxorubicin resistant); experiment: cytotoxic MTS test, CEM-DNR; conditions: Homo sapiens; CEM-DNR cells
From the text: (§1) To evaluate the antitumor activity of newly prepared compounds for in vitro conditions, we used cytotoxic MTS test (Nosková V. et al., Neoplasma 2002, 49, 418-425) on cell lines derived from normal tissues or tumors. Specifically, cell lines K562 (human acute myeloid leukemia); K562-Tax (human acute myeloid leukemia, paclitaxel resistant subline, overexpress multiple drug resistant protein PgP); CEM (T-lymfoblastic leukemia); CEM-DNR-bulk (T-lymfoblastic leukemia, doxorubicin resistant); A549 (human lung adenocarcinoma); HCT116p53 wt (human colorectal cancer, wild-type); HCT116p53−/−(human colorectal cancer, mutant p53) a U2OS (human bone osteosarcoma) were used. Express characteristics, susceptibility profiles of classic antitumor drugs as well as methodology of cytotoxic MTS test have been repeatedly published (Denizot, F.; Lang, R., J. Immunol. Meth. 1986, 89, 271-277; Noskova, V., see above; Šarek J. et al., J, Med. Chem., 2003, 46, 5402-5415).

[2] = test system: HCT116p53−/− (human colorectal cancer, mutant p53); experiment: cytotoxic MTS test, HCT116p53; conditions: HCT116p53 cells
From the text: as §1

[3] = test system: K562-Tax (human acute myeloid leukemia, paclitaxel resistant subline); experiment: cytotoxic MTS test, K562-TAX; conditions: K562-TAX cells
From the text: as §1

HL 60 = experiment: cytotoxic MTS test, HL 60; conditions: Homo sapiens; HL 60 cells
Hep G2 = experiment: cytotoxic MTS test, Hep G2; conditions: Homo sapiens, HepG2; Hep G2 cells
[4] = test system: A549 (human lung adenocarcinoma); experiment: cytotoxic MTS test, A549; conditions: A549 cells
From the text: as §1

[5] = test system: CEM (T-lymfoblastic leukemia); experiment: cytotoxic MTS test, CEM; conditions: Homo sapiens, CCRF-CEM; CEM cells
From the text: as §1

[6] = test system: BJ (normal human fibroblasts); experiment: cytotoxic MTS test, BJ; conditions: BJ cells
[7] = test system: K562 (human acute myeloid leukemia); experiment: cytotoxic MTS test, K562; conditions: K562 cells
From the text: as §1

HeLa = experiment: cytotoxic MTS test, HeLa; conditions: Homo sapiens; HeLa cells
[8] = test system: HCT116p53 wt (human colorectal cancer, wild-type); experiment: cytotoxic MTS test, HCT116; conditions: HCT-116, HCT116 cells
From the text: as §1

[9] = test system: U2OS (human bone osteosarcoma); experiment: cytotoxic MTS test, U2OS; conditions: U2OS cells
From the text: as §1

[10] = test system: MRC-5 (normal human fibroblasts); experiment: cytotoxic MTS test, MRC-5; conditions: MRC5, MRC-5 cells
CCRF-CEM = experiment: cytotoxic MTS test, CCRF-CEM; conditions: Homo sapiens; CCRF-CEM cells
From the text: as §1

SMILES | IC50 [1] [µM] | IC50 [2] [µM] | IC50 [3] [µM] | IC50 (HL 60) [µM] | IC50 (Hep G2) [µM] | IC50 [4] [µM] | IC50 [5] [µM] | IC50 [6] [µM] | IC50 [7] [µM] | IC50 (HeLa) [µM] | IC50 [8] [µM] | IC50 [9] [µM] | IC50 [10] [µM] | IC50 (CCRF-CEM) [µM]
OC[C@H]1O[C@@H](n2c3cccnc3c3c(-c4ccco4)ncnc32)[C@H](O)[C@@H]1O [Compound 1f, 4-(furan-2-yl)-9-(β-D-ribofuranosyl)-9H-pyrido[2′,3′:4,5]pyrrolo[2,3-d]pyrimidine] | > 50 | > 50 | > 50 | > 50 | > 50 | > 50 | > 50 | > 50 | > 50 | > 50 | > 50 | > 50 | > 50 | > 50
COc1ncnc2c1c1ccncc1n2[C@@H]1O[C@H](CO)[C@@H](O)[C@H]1O [Compound 2a, 4-methoxy-9-(β-D-ribofuranosyl)-9H-pyrido[4′,3′:4,5]pyrrolo[2,3-d]pyrimidine] | 0.9 to 10 | 0.9 to 10 | 0.9 to 10 | 0.2 to 0.9 | 0.9 to 10 | > 50 | 0.9 to 10 | > 50 | 0.9 to 10 | 0.9 to 10 | 0.9 to 10 | 0.9 to 10 | > 50 | 0.2 to 0.9
Cc1ncnc2c1c1ncccc1n2[C@@H]1O[C@H](CO)[C@@H](O)[C@H]1O [Compound 1d, 4-methyl-9-(β-D-ribofuranosyl)-9H-pyrido[2′,3′:4,5]pyrrolo[2,3-d]pyrimidine] | > 50 | > 50 | > 50 | > 50 | > 50 | > 50 | > 50 | > 50 | 10 to 25 | > 50 | > 50 | 0.9 to 10 | > 50 | 0.2 to 0.9
Cc1ncnc2c1c1ccncc1n2[C@@H]1O[C@H](CO)[C@@H](O)[C@H]1O [Compound 2d, 4-methyl-9-(β-D-ribofuranosyl)-9H-pyrido[4′,3′:4,5]pyrrolo[2,3-d]pyrimidine] | 0.9 to 10 | 0.9 to 10 | 0.9 to 10 | 0.2 to 0.9 | 0.9 to 10 | > 50 | 0.2 to 0.9 | 0.9 to 10 | 0.9 to 10 | 0.9 to 10 | 0.9 to 10 | 0.9 to 10 | > 50 | 0.2 to 0.9
Nc1ncnc2c1c1ncccc1n2[C@@H]1O[C@H](CO)[C@@H](O)[C@H]1O [Compound 1c, 4-amino-9-(β-D-ribofuranosyl)-9H-pyrido[2′,3′:4,5]pyrrolo[2,3-d]pyrimidine] | > 50 | 25 to 50 | > 50 | 0.2 to 0.9 | 0.9 to 10 | > 50 | > 50 | 0.9 to 10 | 25 to 50 | > 50 | 25 to 50 | 0.9 to 10 | > 50 | 0.2 to 0.9
OC[C@H]1O[C@@H](n2c3cnccc3c3c(-c4ccsc4)ncnc32)[C@H](O)[C@@H]1O [Compound 2h, 4-(thiophen-3-yl)-9-(β-D-ribofuranosyl)-9H-pyrido[4′,3′:4,5]pyrrolo[2,3-d]pyrimidine] | > 50 | > 50 | > 50 | > 50 | > 50 | > 50 | > 50 | > 50 | > 50 | > 50 | > 50 | > 50 | > 50 | > 50
COc1ncnc2c1c1ncccc1n2[C@@H]1O[C@H](CO)[C@@H](O)[C@H]1O [Compound 1a, 4-methoxy-9-(β-D-ribofuranosyl)-9H-pyrido[2′,3′:4,5]pyrrolo[2,3-d]pyrimidine] | > 50 | > 50 | > 50 | > 50 | > 50 | > 50 | > 50 | > 50 | > 50 | > 50 | > 50 | > 50 | > 50 | > 50
Nc1ncnc2c1c1ccncc1n2[C@@H]1O[C@H](CO)[C@@H](O)[C@H]1O [Compound 2c, 4-amino-9-(β-D-ribofuranosyl)-9H-pyrido[4′,3′:4,5]pyrrolo[2,3-d]pyrimidine] | 0.9 to 10 | 0.2 to 0.9 | 0.9 to 10 | 0.2 to 0.9 | 0.2 to 0.9 | 0.9 to 10 | 0.2 to 0.9 | 0.9 to 10 | 0.2 to 0.9 | 0.9 to 10 | 0.2 to 0.9 | 0.2 to 0.9 | > 50 | 0.2 to 0.9
OC[C@H]1O[C@@H](n2c3cnccc3c3c(-c4ccco4)ncnc32)[C@H](O)[C@@H]1O [Compound 2f, 4-(furan-2-yl)-9-(β-D-ribofuranosyl)-9H-pyrido[4′,3′:4,5]pyrrolo[2,3-d]pyrimidine] | > 50 | > 50 | > 50 | > 50 | > 50 | > 50 | > 50 | > 50 | > 50 | > 50 | > 50 | > 50 | > 50 | > 50
OC[C@H]1O[C@@H](n2c3cccnc3c3c(-c4ccoc4)ncnc32)[C@H](O)[C@@H]1O [Compound 1g, 4-(furan-3-yl)-9-(β-D-ribofuranosyl)-9H-pyrido[2′,3′:4,5]pyrrolo[2,3-d]pyrimidine] | > 50 | > 50 | > 50 | > 50 | > 50 | > 50 | > 50 | > 50 | > 50 | > 50 | > 50 | > 50 | > 50 | > 50
CN(C)c1ncnc2c1c1ccncc1n2[C@@H]1O[C@H](CO)[C@@H](O)[C@H]1O [Compound 2e, 4-(dimethylamino)-9-(β-D-ribofuranosyl)-9H-pyrido[4′,3′:4,5]pyrrolo[2,3-d]pyrimidine] | > 50 | > 50 | > 50 | > 50 | > 50 | > 50 | > 50 | > 50 | > 50 | > 50 | > 50 | > 50 | > 50 | > 50
OC[C@H]1O[C@@H](n2c3cccnc3c3c(-c4ccsc4)ncnc32)[C@H](O)[C@@H]1O [Compound 1h, 4-(thiophen-3-yl)-9-(β-D-ribofuranosyl)-9H-pyrido[2′,3′:4,5]pyrrolo[2,3-d]pyrimidine] | > 50 | > 50 | > 50 | > 50 | > 50 | > 50 | > 50 | > 50 | > 50 | > 50 | > 50 | > 50 | > 50 | > 50
